Tested on: 922993-354-T-J3-PDC complex spheroid viability
Experiment: Anticancer human tumor 922993-354-T-J3-PDC patient-derived endometrial carcinoma cell line growth inhibition [POLQ]
Conditions: for IC50: curve of first compound; for viability, T/C: stronger effect = lower value
Protocol: Multicellular complex tumor spheroid response to Polymerase (POL) inhibitors (novobiocin, ART-558, RP6685) in combination with a variety of drugs and investigational agents in selected tumor cell lines
The POL inhibitors (novobiocin, ART-558, and RP6685) were evaluated both individually and in combination with standard of care and investigational anticancer small molecules within a complex spheroid model of solid tumors. . Complex spheroids include a stromal component modeled by human endothelial cells (HUVEC) and fibroblasts modeled by human mesenchymal stem cells (MSCs). The concentration ranges selected for each drug and investigational agent were based upon clinically achievable concentrations if the clinical Cmax of the agent was known.
Compounds. The drugs and investigational agents: novobiocin (NSC847541), ART-558 (NSC835418), RP-6685 (NSC848927), peposertib (NSC802822), ceralasertib (NSC780249), elimusertib (NSC800525), camonsertib (NSC841442), AZD-1390 (NSC803789), olaparib (NSC753686), talazoparib (NSC767125), rucaparib (NSC756644), sotorasib (NSC818433), MRTX-1133 (NSC836407), SN-38 (NSC673596), topotecan (NSC609699), epotoside (NSC141540), doxorubicin (NSC123127), gemcitabine (NSC613327), 5-fluorouracil (NSC19893), paclitaxel (NSC125973), vemurafenib (NSC761431), MSA-2 (NSC828583), SN-011 (NSC837082), adavosertib (NSC754352), prexasertib (NSC758257), carboplatin (NSC241240) and oxaliplatin (NSC266046), were obtained from the National Cancer Institute (NCI) Developmental Therapeutics Program Chemical Repository (21). The FDA-approved anticancer drug set is available from the Developmental Therapeutics Program at https://dtp.cancer.gov/organization/dscb/obtaining/. […] The stock solutions were prepared in dimethyl sulfoxide (DMSO, Sigma-Aldrich, St. Louis, MO, cat. D2650), except for the platinum compounds which were prepared in saline (Quality Biological, Gaithersburg, MD, cat. 114-055-101), at 800-fold the tested concentration and stored at -70 degrees C prior to their use. All drugs and investigational agents were tested over a range starting from a high concentration at or near the clinical Cmax and decreasing in half-log increments. If the clinical Cmax for an agent had not been determined, the highest concentration tested was 10 microM, except for SN-38, which was tested at a high concentration of 1 microM.
Cell Culture. All cells were maintained in an incubator at 37 degrees C and 5% CO2 with 95% humidity. The PDC lines were cultured according to standard operating procedures established by the NCI PDMR (https://pdmr.cancer.gov). Table 3 of the manuscript, lists the cell lines along with the number of the three cell types plated to form the mct-spheroids and media for tumor cell growth. After thawing, all PDC lines, except 997537-175-T-J1-PDC and 415267-285-R-J2-PDC, were cultured in Matrigel-coated flasks prepared with a working solution of 1X Ham's F-12 nutrient mix, without supplementation (Thermo Fisher Scientific, cat. 11765054), 100 U/mL penicillin-streptomycin (Thermo Fisher Scientific, cat. 15140122), and 2.5% Matrigel (Corning Inc., Corning, NY, cat. 354248) for the first three passages. The two PDC lines 997537-175-T-J1-PDC and 415267-285-R-J2-PDC were cultured on uncoated flasks. The 857933-349-R-J2-PDC line was cultured in 6C/Colon 1B media containing advanced DMEM/F-12 (Thermo Fisher Scientific, cat. 12634028), 10 mM HEPES (Thermo Fisher Scientific, cat. 15630080), 1X GlutaMAX supplement (Thermo Fisher Scientific, cat. 35050061), 0.1 mg/mL primocin (InvivoGen, San Diego, CA, cat. ant-pm-2), 10% defined fetal bovine serum, heat inactivated (HyClone Laboratories Inc., Logan, UT, cat. SH30070.03HI), 50% L-WRN conditioned media (ATCC, cat. CRL-3276), 1.25 mM N-Acetyl-L-cysteine (Sigma-Aldrich, cat. A9165), 10 mM nicotinamide (Sigma-Aldrich, cat. N0636), 1X B-27 supplement (Thermo Fisher Scientific, cat. 17504044), 1X N-2 supplement (Thermo Fisher Scientific, cat. […]
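Also: spheroids exposed to the agents for one week.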
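For viability, T/C in this document: 100% = DMSO vehicle control wells.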

CC1COCCN1c1cc(C2(O)CC3CCC(C2)O3)c2cnn(-c3ccn[nH]3)c2n1 (configuration not stated) + Nc1ccc(C#CCN(C(=O)Cc2ncc(C(F)(F)F)cc2C(F)(F)F)c2ccc(F)cc2)nn1
IC50 (second compound 0.0316 µM): 2080 nM
IC50 (second compound 0.1 µM): 2160 nM
IC50 (second compound 0.316 µM): 2270 nM
IC50 (second compound 1 µM): 2370 nM
IC50 (second compound 3.16 µM): 1310 nM
IC50 (second compound 10 µM): 453 nM
viability, T/C (second compound 0.0316 µM, first compound 0.0316 µM): 102%
viability, T/C (second compound 0.0316 µM, first compound 0.1 µM): 105%
viability, T/C (second compound 0.0316 µM, first compound 0.316 µM): 89.1%
viability, T/C (second compound 0.0316 µM, first compound 1 µM): 74.9%
viability, T/C (second compound 0.0316 µM, first compound 3.16 µM): 35.3%
viability, T/C (second compound 0.0316 µM, first compound 10 µM): 21.3%
viability, T/C (second compound 0.1 µM, first compound 0.0316 µM): 108%
viability, T/C (second compound 0.1 µM, first compound 0.1 µM): 107%
viability, T/C (second compound 0.1 µM, first compound 0.316 µM): 98.7%
viability, T/C (second compound 0.1 µM, first compound 1 µM): 76.7%
viability, T/C (second compound 0.1 µM, first compound 3.16 µM): 36.8%
viability, T/C (second compound 0.1 µM, first compound 10 µM): 16.2%
viability, T/C (second compound 0.316 µM, first compound 0.0316 µM): 106%
viability, T/C (second compound 0.316 µM, first compound 0.1 µM): 102%
viability, T/C (second compound 0.316 µM, first compound 0.316 µM): 92.9%
viability, T/C (second compound 0.316 µM, first compound 1 µM): 75.8%
viability, T/C (second compound 0.316 µM, first compound 3.16 µM): 38.9%
viability, T/C (second compound 0.316 µM, first compound 10 µM): 20.7%
viability, T/C (second compound 1 µM, first compound 0.0316 µM): 105%
viability, T/C (second compound 1 µM, first compound 0.1 µM): 94.3%
viability, T/C (second compound 1 µM, first compound 0.316 µM): 89.2%
viability, T/C (second compound 1 µM, first compound 1 µM): 74.7%
viability, T/C (second compound 1 µM, first compound 3.16 µM): 40.9%
viability, T/C (second compound 1 µM, first compound 10 µM): 14.9%
viability, T/C (second compound 3.16 µM, first compound 0.0316 µM): 97.8%
viability, T/C (second compound 3.16 µM, first compound 0.1 µM): 101%
viability, T/C (second compound 3.16 µM, first compound 0.316 µM): 80.4%
viability, T/C (second compound 3.16 µM, first compound 1 µM): 59.3%
viability, T/C (second compound 3.16 µM, first compound 3.16 µM): 26%
viability, T/C (second compound 3.16 µM, first compound 10 µM): 12.2%
viability, T/C (second compound 10 µM, first compound 0.0316 µM): 99.4%
viability, T/C (second compound 10 µM, first compound 0.1 µM): 90.9%
viability, T/C (second compound 10 µM, first compound 0.316 µM): 62.4%
viability, T/C (second compound 10 µM, first compound 1 µM): 22.9%
viability, T/C (second compound 10 µM, first compound 3.16 µM): 19.4%
viability, T/C (second compound 10 µM, first compound 10 µM): 10.9%
